Source: US20170135979A1, “PDE-DELTA INHIBITOR FOR THE TREATMENT OF CANCER” (Macau University of Science and Technology, priority 2015, published 2017)

Assays:
A549 cells [1] = assay: Annexin V-FITC/PI apoptosis assay by flow cytometry; format: cell-based; details: A549, 2.5 μM, 5 μM or 10 μM, 48 h, compared with control group
Procedure: Apoptosis was measured using the Annexin V-FITC apoptosis detection kit (BD Biosciences, San Jose, Calif., USA), according to the manufacturer protocol. […] Subsequently, cells were trypsinized, washed with PBS and stained with 100 μL binding buffer containing 2 μL Annexin-V FITC and 5 μL propidine iodide (PI) incubated in the dark at room temperature for 15 min, before further addition of 400 μL of 1× Annexin-binding buffer. The stained cells were analyzed quantitatively using a Flow Cytometer (BD Biosciences, San Jose, Calif., USA). Data were analyzed by Flow Jo software.

H2122 (K-RAS G12C) cells = assay: MTT cell viability assay, 72 h; format: cell-based; details: Homo sapiens, NCI-H2122
Procedure: (§1) A549 (K-RAS^G12S), H358 (K-RAS^G12C), H2122 (K-RAS^G12C) and CCD19-Lu cells were obtained from the American Type Culture Collection and cultured in an environment of 5% CO2 at 37° C. in RPMI-1640 medium supplemented with 10% fetal bovine serum (FBS), 100 units/mL penicillin, and 100 μg/mL streptomycin.
(§2) 3000 cells were seeded on 96-well plates, cultured overnight for cell adhesion, then treated with DMSO or various concentrations of compound of Formula (VII) for 72 h, at the end of the incubation, each well was added with 10 μL of MTT (5 mg/mL; Sigma), and the plates were incubated for an additional 4 h, then the crystals were dissolved in 100 μL of the resolved solution (10% SDS and 0.1 mM HCL). The absorbance at 570 nm was measured using a microplate reader (Tecan, Morrisville, N.C., USA). The cell viability was calculated relative to untreated controls, with results based on at least three independent experiments. […] The IC50 in CCD19-Lu is more than 20 μM (Table 1).

A549 (K-RAS G12S) cells = assay: MTT cell viability assay, 72 h; format: cell-based; details: Homo sapiens
Procedure: as §1, §2

[2] = test system: normal lung epithelial cells (CCD19-Lu); assay: MTT cell viability assay, 72 h; format: cell-based; details: Homo sapiens, CCD 19Lu
Procedure: as §1, §2

H358 (K-RAS G12C) cells = assay: MTT cell viability assay, 72 h; format: cell-based; details: Homo sapiens, NCI-H358
Procedure: as §1, §2

[3] = test system: p-C-raf, pErk, pAkt in A549 cells; assay: Western blot of signaling pathways downstream to K-RAS; format: cell-based; details: A549, 2.5 μM, 5 μM and 10 μM, compared with untreated cells
Procedure: Equal amounts of protein (20-40 μg per lane) were separated with a 10% SDS-PAGE gel, then the separated proteins were transferred to a Nitrocellulose (NC) membrane, which was then exposed to 5% non-fat dry milk in TBS containing 0.1% Tween 20 (0.1% TBST) for 1 hour at room temperature with constant agitation, followed by overnight incubation at 4° C. with primary antibodies, after washing three times by TBST, the membranes were incubated with secondary rabbit or mouse fluorescent antibodies, the signal intensity of the membranes was detected by anLI-COR Odessy scanner (Belfast, Me., USA). All primary antibodies were diluted 1:1000, while their recommended secondary antibodies were diluted 1:10000.

[4] = test system: active (GTP-bound) K-RAS in A549 cells; assay: K-RAS activation (GTP pull down) assay with immunoblotting; format: cell-based
Procedure: Further, a K-RAS activation assay with subsequent immunoblotting has been carried out. […] Cells were lysed in lysis buffer, adjusted the volume of each sample to 1 mL with 1× Assay Lysis Buffer, 40 μL of the Raf1 RBD Agarose bead slurry were added to each sample quickly, follow by incubating the tubes at 4° C. for 1 hour with gentle agitation, beads were washed three times with cold lysis buffer, and bounded protein was resuspended in 40 μL of 2× reducing SDS-PAGE sample buffer and heated at 100° C. for 5 min. The samples were then run by SDS-PAGE followed by immunoblotting. Total amount of RAS being pulled down were compared between the control and treatment groups.
The compound of Formula (VII) inhibited K-RAS binding to GTP in A549 cells.

A549 cells [5] = assay: Colony formation assay; format: cell-based; details: 10 days
Procedure: Still further, the inhibitory effect of the compound of Formula (VII) on the colony formation in A549 cells has been analyzed to provide further evidence that the compound of Formula (VII) inhibits the formation of colonies of cancerous cells to an exceptional degree, too. A549 cells were seeded on a six-well plate at a density of 500 cells per well. […] After 10 days, the colonies were fixed with 4% paraformaldehyde and stained with a 0.5% (0.5% w/v) crystal violet solutions, the number of colonies >50 was counted under a dissecting microscope.

[6] = test system: human pancreatic ductal adenocarcinoma cells; details: in vitro and in vivo; cited from earlier work

Row | Compound | cell apoptosis (A549 cells [1]) | IC50 (H2122 (K-RAS G12C) cells) [µM] | IC50 (A549 (K-RAS G12S) cells) [µM] | IC50 [2] [µM] | IC50 (H358 (K-RAS G12C) cells) [nM] | level of p-C-raf [3] | level of pAkt [3] | level of pErk [3] | amount of K-RAS being pulled down (GTP-bound K-RAS) ([4]; A549, 10 μM, 48 h, compared to untreated control) | colony formation capacity (A549 cells [5]; A549, 1.25 μM, 2.5 μM, 5 μM or 10 μM) | colonies formed (A549 cells [5]; A549, 10 μM) | proliferation of human pancreatic ductal adenocarcinoma cells [6] | GTP binding with K-RAS ([4]; A549, 4 μM, positive control)
1 | CC(C)(C)c1cc2oc3c(c2c(/C=N/NC(=O)c2ccc(O)cc2O)c1O)CCCC3 [compound of Formula (VII)] | induced significant cell apoptosis | 3.35 ± 2.74 | 5.59 ± 1.27 | > 20 | 2400 ± 2100 | decreased | decreased | decreased | caused a decrease | significantly inhibited | no visible colonies | – | –
2 | c1ccc(Cn2c(-c3ccc(OC[C@H](C4CCNCC4)n4c(-c5ccccc5)nc5ccccc54)cc3)nc3ccccc32)cc1 [Deltarasin, reference compound] | – | – | – | – | – | – | – | – | – | – | – | strongly suppressed | suppression
